According to PubChem BioAssay (NCI):
Values joined by “and” are separate entries in the source; they are usually repeats but may differ in a detail not shown here. Identical values can stand only once.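 All cell lines were grown in 96-well plates and treated with compound for 48 hours. GI50 marks 50% less growth. TGI is the concentration that stops growth completely.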

What was measured:
Experiment in all cases: NCI-60 cell line screen, 48 h
DLD-1 colon = test system: DLD-1 colon
XF 498 CNS = test system: XF 498 CNS
SF-295 CNS = test system: SF-295 CNS
EKVX NSCLC = test system: EKVX NSCLC
M19-MEL melanoma = test system: M19-MEL melanoma
RPMI-8226 leukemia = test system: RPMI-8226 leukemia
HT29 colon = test system: HT29 colon
KM20L2 colon = test system: KM20L2 colon
SK-MEL-5 melanoma = test system: SK-MEL-5 melanoma
M14 melanoma = test system: M14 melanoma
HOP-62 NSCLC = test system: HOP-62 NSCLC
HCT-116 colon = test system: HCT-116 colon
UACC-62 melanoma = test system: UACC-62 melanoma
HCT-15 colon = test system: HCT-15 colon
SN12C renal = test system: SN12C renal
NCI-H460 lung = test system: NCI-H460 lung
LOX IMVI melanoma = test system: LOX IMVI melanoma
DMS 273 small cell lung = test system: DMS 273 small cell lung
CAKI-1 renal = test system: CAKI-1 renal
UO-31 renal = test system: UO-31 renal
786-0 renal = test system: 786-0 renal
A549 NSCLC = test system: A549 NSCLC
SK-OV-3 ovarian = test system: SK-OV-3 ovarian
RXF 393 renal = test system: RXF 393 renal
NCI-H23 lung = test system: NCI-H23 lung
TK-10 renal = test system: TK-10 renal
SF-539 CNS = test system: SF-539 CNS
U251 CNS = test system: U251 CNS
OVCAR-8 ovarian = test system: OVCAR-8 ovarian
SW-620 colon = test system: SW-620 colon
HOP-92 NSCLC = test system: HOP-92 NSCLC
K-562 leukemia = test system: K-562 leukemia
NCI-H522 lung = test system: NCI-H522 lung
HCC-2998 colon = test system: HCC-2998 colon
MDA-MB-231 breast = test system: MDA-MB-231 breast
DU-145 prostate = test system: DU-145 prostate
T-47D breast = test system: T-47D breast
SNB-75 CNS = test system: SNB-75 CNS
BT-549 breast = test system: BT-549 breast
LXFL 529 NSCLC = test system: LXFL 529 NSCLC
A498 renal = test system: A498 renal
SR leukemia = test system: SR leukemia
KM12 colon = test system: KM12 colon
RXF-631 renal = test system: RXF-631 renal
ACHN renal = test system: ACHN renal
HS 578T breast = test system: HS 578T breast
PC-3 prostate = test system: PC-3 prostate
SK-MEL-28 melanoma = test system: SK-MEL-28 melanoma

For `Cc1nc2ccccc2c(=O)n1/N=C(\N=Nc1cccc(Cl)c1)c1ccccc1Cl`, which TGI (DLD-1 colon) is on record?
The TGI was over 100000 nM.

What about the TGI (XF 498 CNS) of the same molecule?
Its TGI is 3910 nM.

And the TGI (SF-295 CNS)?
Its TGI is 71500 nM.

And the TGI (EKVX NSCLC)?
Its TGI is over 100000 nM.

What about the TGI (M19-MEL melanoma) of the same molecule?
The TGI was over 100000 nM.

And the TGI (RPMI-8226 leukemia)?
Its TGI is over 100000 nM.

What about the TGI (HT29 colon) of the same molecule?
Its TGI is over 100000 nM.

And the TGI (KM20L2 colon)?
Its TGI is over 100000 nM.

And the TGI (SK-MEL-5 melanoma)?
The TGI was over 100000 nM.

And the TGI (M14 melanoma)?
The TGI was over 100000 nM.

And the TGI (HOP-62 NSCLC)?
The TGI was over 100000 nM.

What about the TGI (HCT-116 colon) of the same molecule?
The TGI was over 100000 nM.

What about the TGI (UACC-62 melanoma) of the same molecule?
The TGI was over 100000 nM.

What about the TGI (HCT-15 colon) of the same molecule?
Its TGI is over 100000 nM.

What about the TGI (SN12C renal) of the same molecule?
The TGI was over 100000 nM.

And the TGI (NCI-H460 lung)?
Its TGI is over 100000 nM.

And the TGI (LOX IMVI melanoma)?
Its TGI is over 100000 nM.

And the TGI (DMS 273 small cell lung)?
The TGI was over 100000 nM.

And the TGI (CAKI-1 renal)?
The TGI was over 100000 nM.

What about the TGI (UO-31 renal) of the same molecule?
The TGI was over 100000 nM.

What about the TGI (786-0 renal) of the same molecule?
The TGI was over 100000 nM.

And the TGI (A549 NSCLC)?
The TGI was over 100000 nM.

And the TGI (SK-OV-3 ovarian)?
The TGI was 62800 nM.

And the TGI (RXF 393 renal)?
Its TGI is 55200 nM.

And the TGI (NCI-H23 lung)?
Its TGI is over 100000 nM.

What about the TGI (TK-10 renal) of the same molecule?
Its TGI is over 100000 nM.

And the TGI (SF-539 CNS)?
The TGI was 89000 nM.

What about the TGI (U251 CNS) of the same molecule?
The TGI was over 100000 nM.

And the TGI (OVCAR-8 ovarian)?
Its TGI is over 100000 nM.

What about the TGI (SW-620 colon) of the same molecule?
The TGI was over 100000 nM.

And the TGI (HOP-92 NSCLC)?
The TGI was 58500 nM.

And the TGI (K-562 leukemia)?
The TGI was 3730 nM.

And the TGI (NCI-H522 lung)?
The TGI was over 100000 nM.

With `COc1cccc2c1C(=O)c1c(O)c3c(c(O)c1C2=O)C[C@@](O)(C(=O)CO)C[C@@H]3OC1CC(N2CCOCC2C#N)C(O)C(C)O1` (some centres undefined) as the molecule, how does the TGI (HCC-2998 colon) read?
Its TGI is 0.208 nM and 0.237 nM.

And the TGI (XF 498 CNS)?
Its TGI is 0.397 nM and 0.282 nM.

What about the TGI (MDA-MB-231 breast) of the same molecule?
Its TGI is 0.812 nM.

And the TGI (DU-145 prostate)?
Its TGI is 20 nM.

What about the TGI (T-47D breast) of the same molecule?
The TGI was 3.27 nM and 5.81 nM.

And the TGI (SNB-75 CNS)?
The TGI was 0.11 nM and 0.0613 nM.

What about the TGI (EKVX NSCLC) of the same molecule?
The TGI was 0.75 nM and 0.901 nM.

What about the GI50 (M14 melanoma) of the same molecule?
Its GI50 is 0.0812 nM.

What about the TGI (M14 melanoma) of the same molecule?
Its TGI is 0.108 nM and 0.527 nM.

And the TGI (BT-549 breast)?
Its TGI is 0.234 nM and 0.23 nM.

What about the GI50 (LXFL 529 NSCLC) of the same molecule?
Its GI50 is 0.245 nM.

And the TGI (A498 renal)?
The TGI was 1.04 nM and 0.139 nM.

What about the GI50 (SR leukemia) of the same molecule?
The GI50 was 0.0468 nM.

And the TGI (KM12 colon)?
Its TGI is 1.55 nM and 0.377 nM and 2.59 nM.

What about the TGI (RXF-631 renal) of the same molecule?
The TGI was 2.27 nM and 21.5 nM.

What about the GI50 (ACHN renal) of the same molecule?
Its GI50 is 0.078 nM and 0.023 nM.

And the GI50 (786-0 renal)?
Its GI50 is 0.0534 nM and 0.0331 nM.

And the TGI (786-0 renal)?
Its TGI is 2.24 nM and 1.51 nM and 4.47 nM.

What about the TGI (HS 578T breast) of the same molecule?
The TGI was 0.0535 nM and 0.221 nM.

And the TGI (RXF 393 renal)?
The TGI was 0.0982 nM and 0.0513 nM.

What about the GI50 (TK-10 renal) of the same molecule?
Its GI50 is 0.278 nM and 0.374 nM.

And the TGI (SF-539 CNS)?
The TGI was 0.1 nM and 0.109 nM.

What about the TGI (HOP-92 NSCLC) of the same molecule?
Its TGI is 0.614 nM and 0.566 nM.

And the TGI (PC-3 prostate)?
Its TGI is 0.124 nM and 1.12 nM.

What about the TGI (SK-MEL-28 melanoma) of the same molecule?
Its TGI is 0.481 nM and 0.552 nM.

What about the TGI (NCI-H522 lung) of the same molecule?
Its TGI is 0.411 nM and 0.129 nM.
